Laboratory results: the supplement of paper PMC13207355

Columns and labels:
Settings in all cases: exposure time: 72 h
E13 [1] = patient-derived glioblastoma stem cells of classical subtype; experiment: surviving fraction (nuclei count normalised to DMSO); higher = more cells surviving (less toxic)
E21 [2] = patient-derived glioblastoma stem cells of mesenchymal subtype; experiment: as above
E28 [3] = patient-derived glioblastoma stem cells of classical subtype; experiment: as above
E31 [4] = patient-derived glioblastoma stem cells of proneural subtype; experiment: as above
E34 [5] = patient-derived glioblastoma stem cells of proneural subtype; experiment: as above
E57 [6] = patient-derived glioblastoma stem cells of mesenchymal subtype; experiment: as above
FT3469 [7] = normal neural stem cell line; experiment: as above
E13 [8] = experiment: phenotypic distance (Euclidean, principal components) from DMSO controls (arbitrary units); higher = stronger morphological change
E21 [9] = experiment: as above
E28 [10] = experiment: as above
E31 [11] = experiment: as above
E34 [12] = experiment: as above
E57 [13] = experiment: as above
FT3469 [14] = experiment: as above
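For phenotypic distance (Euclidean, principal components) from DMSO controls in this document: cell Painting imaging in 384-well plates, CellProfiler features reduced to at least 20 principal components, Euclidean distance versus same-plate DMSO vehicle wells (0.1% v/v), median over six images per well.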
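For surviving fraction (nuclei count normalised to DMSO) in this document: nuclei counted by high-content imaging of Hoechst-stained cells in laminin-coated 384-well plates, relative to 0.1% DMSO vehicle wells, with staurosporine as cell-death control.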

Compound `CC(C)(Oc1ccc(C2CC2(Cl)Cl)cc1)C(=O)O` (stereo not drawn) [Ciprofibrate] has a surviving fraction (E13 [1]; 4.1 nM) of 0.885, a surviving fraction (E13 [1]; 12.3 nM) of 0.896 and a surviving fraction (E13 [1]; 37 nM) of 1.05. The surviving fraction (E13 [1]; 111.1 nM) was 0.961, the surviving fraction (E13 [1]; 333.3 nM) was 1.07 and the surviving fraction (E13 [1]; 1000 nM) was 1.13. For the same compound, the surviving fraction (E13 [1]; 3000 nM) was 1, the surviving fraction (E21 [2]; 4.1 nM) was 0.982 and the surviving fraction (E21 [2]; 12.3 nM) was 0.945. The surviving fraction (E21 [2]; 37 nM) was 0.898, the surviving fraction (E21 [2]; 111.1 nM) was 0.962 and the surviving fraction (E21 [2]; 333.3 nM) was 0.951. The surviving fraction (E21 [2]; 1000 nM) was 1.01, the surviving fraction (E21 [2]; 3000 nM) was 0.986 and the surviving fraction (E28 [3]; 4.1 nM) was 1.06. The surviving fraction (E28 [3]; 12.3 nM) was 0.804, the surviving fraction (E28 [3]; 37 nM) was 1.11 and the surviving fraction (E28 [3]; 111.1 nM) was 1.06. For the same compound, the surviving fraction (E28 [3]; 333.3 nM) was 1.12, the surviving fraction (E28 [3]; 1000 nM) was 1.02 and the surviving fraction (E28 [3]; 3000 nM) was 1.31. For the same compound, the surviving fraction (E31 [4]; 4.1 nM) was 1.18, the surviving fraction (E31 [4]; 12.3 nM) was 0.902 and the surviving fraction (E31 [4]; 37 nM) was 0.955. The surviving fraction (E31 [4]; 111.1 nM) was 0.771, the surviving fraction (E31 [4]; 333.3 nM) was 1.06 and the surviving fraction (E31 [4]; 1000 nM) was 0.889. For the same compound, the surviving fraction (E31 [4]; 3000 nM) was 1.06, the surviving fraction (E34 [5]; 4.1 nM) was 1.07 and the surviving fraction (E34 [5]; 12.3 nM) was 0.868. It also gave a surviving fraction (E34 [5]; 37 nM) of 0.894, a surviving fraction (E34 [5]; 111.1 nM) of 0.945 and a surviving fraction (E34 [5]; 333.3 nM) of 0.986. It also gave a surviving fraction (E34 [5]; 1000 nM) of 0.988, a surviving fraction (E34 [5]; 3000 nM) of 1.08 and a surviving fraction (E57 [6]; 4.1 nM) of 0.918. It also gave a surviving fraction (E57 [6]; 12.3 nM) of 1.04, a surviving fraction (E57 [6]; 37 nM) of 0.934 and a surviving fraction (E57 [6]; 111.1 nM) of 0.991. The surviving fraction (E57 [6]; 333.3 nM) was 1.03, the surviving fraction (E57 [6]; 1000 nM) was 0.983 and the surviving fraction (E57 [6]; 3000 nM) was 1.06. It also gave a surviving fraction (FT3469 [7]; 4.1 nM) of 0.859, a surviving fraction (FT3469 [7]; 12.3 nM) of 0.891 and a surviving fraction (FT3469 [7]; 37 nM) of 0.979. For the same compound, the surviving fraction (FT3469 [7]; 111.1 nM) was 0.92, the surviving fraction (FT3469 [7]; 333.3 nM) was 0.926 and the surviving fraction (FT3469 [7]; 1000 nM) was 0.886. The surviving fraction (FT3469 [7]; 3000 nM) was 0.947, the phenotypic distance (E13 [8]; 4.1 nM) was 0.888 and the phenotypic distance (E13 [8]; 12.3 nM) was 0.449. For the same compound, the phenotypic distance (E13 [8]; 37 nM) was 0.462, the phenotypic distance (E13 [8]; 111.1 nM) was 0.363 and the phenotypic distance (E13 [8]; 333.3 nM) was 0.62. It also gave a phenotypic distance (E13 [8]; 1000 nM) of 0.655, a phenotypic distance (E13 [8]; 3000 nM) of 0.745 and a phenotypic distance (E21 [9]; 4.1 nM) of 1.13. The phenotypic distance (E21 [9]; 12.3 nM) was 1.12, the phenotypic distance (E21 [9]; 37 nM) was 1.06 and the phenotypic distance (E21 [9]; 111.1 nM) was 0.721. It also gave a phenotypic distance (E21 [9]; 333.3 nM) of 0.996, a phenotypic distance (E21 [9]; 1000 nM) of 0.59 and a phenotypic distance (E21 [9]; 3000 nM) of 0.683. It also gave a phenotypic distance (E28 [10]; 4.1 nM) of 1.01, a phenotypic distance (E28 [10]; 12.3 nM) of 0.813 and a phenotypic distance (E28 [10]; 37 nM) of 0.864. The phenotypic distance (E28 [10]; 111.1 nM) was 0.823, the phenotypic distance (E28 [10]; 333.3 nM) was 0.782 and the phenotypic distance (E28 [10]; 1000 nM) was 0.776. The phenotypic distance (E28 [10]; 3000 nM) was 0.735, the phenotypic distance (E31 [11]; 4.1 nM) was 0.865 and the phenotypic distance (E31 [11]; 12.3 nM) was 0.469. It also gave a phenotypic distance (E31 [11]; 37 nM) of 0.691, a phenotypic distance (E31 [11]; 111.1 nM) of 0.704 and a phenotypic distance (E31 [11]; 333.3 nM) of 0.816. It also gave a phenotypic distance (E31 [11]; 1000 nM) of 0.949, a phenotypic distance (E31 [11]; 3000 nM) of 0.985 and a phenotypic distance (E34 [12]; 4.1 nM) of 0.978. It also gave a phenotypic distance (E34 [12]; 12.3 nM) of 0.753, a phenotypic distance (E34 [12]; 37 nM) of 0.669 and a phenotypic distance (E34 [12]; 111.1 nM) of 0.8. The phenotypic distance (E34 [12]; 333.3 nM) was 0.886, the phenotypic distance (E34 [12]; 1000 nM) was 0.675 and the phenotypic distance (E34 [12]; 3000 nM) was 1.09. For the same compound, the phenotypic distance (E57 [13]; 4.1 nM) was 0.79, the phenotypic distance (E57 [13]; 12.3 nM) was 0.645 and the phenotypic distance (E57 [13]; 37 nM) was 0.985. For the same compound, the phenotypic distance (E57 [13]; 111.1 nM) was 0.544, the phenotypic distance (E57 [13]; 333.3 nM) was 0.513 and the phenotypic distance (E57 [13]; 1000 nM) was 5.6. It also gave a phenotypic distance (E57 [13]; 3000 nM) of 0.728, a phenotypic distance (FT3469 [14]; 4.1 nM) of 0.922 and a phenotypic distance (FT3469 [14]; 12.3 nM) of 0.62. For the same compound, the phenotypic distance (FT3469 [14]; 37 nM) was 0.718, the phenotypic distance (FT3469 [14]; 111.1 nM) was 0.814 and the phenotypic distance (FT3469 [14]; 333.3 nM) was 0.871. The phenotypic distance (FT3469 [14]; 1000 nM) was 0.441 and the phenotypic distance (FT3469 [14]; 3000 nM) was 0.507.
